Assay results taken from US20210278408A1, “METHODS OF TREATMENT OF CANCER WITH SUBSTITUTED PYRROLE AND PYRAZOLE COMPOUNDS AND DIAGNOSIS OF CANCERS SUSCEPTIBLE TO TREATMENT WITH SUBSTITUTED PYRROLE AND PYRAZOLE COMPOUNDS” (Bantam Pharmaceutical, LLC, priority 2018, published 2021).

Tested on: 406 cancer cell lines, 73 blood tumor cell lines and 333 solid tumor cell lines
Assay: OmniScreen drug efficacy on cancer cell lines, fitted area under curve (AUC) of dose-response
Type: cell-based
Parameters: AUCs: unit not given beside the values
Description: Predictive biomarkers for genes indicating responsiveness to a therapeutic compound can be determined using a cell-based screening technique, such as that offered under the name OmniScreen™ (Crown Biosciences).
In one experimental study, predictive biomarkers were determined for Compound A197 efficacy on 406 cancer cell lines, 73 blood tumor cell lines and 333 solid tumor cell lines. Genomic data for the cell lines was downloaded from the Cancer Cell Line Encyclopedia Project (CCLE) website. Driver mutations were predicted on the Cancer Genome Interpreter Database; only driver mutations were used in the mutation related analysis.
Dose-response curves were fitted by the 4-parameter model:
in which top and bottom are the two asymptotes of the sigmoidal curve, EC50 is the relative IC50, and concentration x is in log−10 scale. To accommodate experimental errors, Bottom was allowed to go down to −20%, and Top was allowed to go up to 120%. The fitting error of a model is measured by
σECS0 is the standard error of EC50. In general, such fitting error should be less than 40% for a model to be considered acceptable. The fitted area under curve (AUC) is calculated by
where a=log(3, 10) and b=log(30000,10).

Cc1nn(-c2nc(-c3ccc(C(F)(F)F)cc3)c(SC(C)C)s2)c(C(=O)O)c1-c1cccc(F)c1 [Compound A197, 4-(3-fluorophenyl)-1-(5-(isopropylthio)-4-(4-(trifluoromethyl)phenyl)thiazol-2-yl)-3-methyl-1H-pyrazole-5-carboxylic acid]
AUCs (22Rv1, Prostate): 2.52
AUCs (8505C, H&N/Thyroid): 3.78
AUCs (A253, Submaxillary gland): 3.32
AUCs (A875, Skin): 3.84
AUCs (A2058, Skin): 3.64
AUCs (A2780, Ovary): 2.43
AUCs (A2780cis, Ovary): 2.68
IC50 (A2780cis, Ovary): 541 nM
AUCs (A-172, Brain&Nerves): 3.29
AUCs (A-204, Muscle): 3.66
AUCs (A-375, Skin): 3.42
AUCs (A-427, Lung): 3.59
AUCs (A-431, Skin): 2.96
AUCs (A-673, Muscle): 2.78
AUCs (AGS, Stomach/Gastric): 3.63
IC50 (AGS, Stomach/Gastric): 205000 nM
AUCs (AN3 CA, Uterus): 3.88
AUCs (ARH-77, Blood): 3.22
AUCs (ASH-3, H&N/Thyroid): 3.41
responsiveness of blood tumor cell lines versus solid tumor cell lines (AUC, Welch's t-test P-value 2.3e-16): more likely to be responsive
AUCs (AsPC-1, Pancreas): 3.59
AUCs (BT-20, Breast): 3.2
AUCs (BT-483, Breast): 3.43
AUCs (BxPC-3, Pancreas): 2.97
AUCs (C4-2, Prostate): 3.61
AUCs (C666-1, Nose): 3.15
AUCs (C-33 A, Uterus): 3.7
AUCs (CAL-27, Tongue): 3.17
AUCs (CFPAC-1, Pancreas): 3.56
AUCs (COV644, Ovary): 3.69
AUCs (Ca Ski, Uterus): 4.35
AUCs (Caki-2, Kidney): 3.53
AUCs (Calu-6, Lung): 3.21
AUCs (Caov-3, Ovary): 3.65
AUCs (Capan-1, Pancreas): 3.82
AUCs (Capan-2, Pancreas): 3.28
AUCs (CoC1, Ovary): 2.95
AUCs (CoC1/DDP, Ovary): 3.33
AUCs (D283 Med, Brain&Nerves): 3.28
AUCs (DMS 79, Lung): 4.09
AUCs (DMS 114, Lung): 3.56
AUCs (DU 145, Prostate): 2.99
AUCs (DV-90, Lung): 3.1
AUCs (Daoy, Brain&Nerves): 3.14
AUCs (Detroit 562, Pharynx): 3.54
AUCs (DoTc2 4510, Uterus/Cervix): 3.9
AUCs (EBC-1, Lung): 3.47
AUCs (ES-2, Ovary): 3.75
IC50 (ES-2, Ovary): 70800 nM
AUCs (FaDu, Pharynx): 2.9
AUCs (GTL-16, Stomach/Gastric): 3.18
AUCs (HCC 94, Uterus): 2.92
IC50 (HCC 94, Uterus): 806 nM
AUCs (HCC1187, Breast): 3.63
AUCs (HCC1500, Breast): 3.27
AUCs (HCC1806, Breast): 3.39
AUCs (HCC1937, Breast): 3.36
AUCs (HCC1954, Breast): 3.44
AUCs (HCC2218, Breast): 3.48
AUCs (HCC2935, Lung): 3.49
AUCs (HCCC-9810, Liver): 3.64
AUCs (HCCLM3, Liver): 3.87
AUCs (HEC-1-A, Uterus): 3.28
AUCs (HEC-1-B, Uterus): 2.85
AUCs (HGC-27, Stomach/Gastric): 2.39
AUCs (HLE, Liver): 3.3
AUCs (HLF, Liver): 3.43
AUCs (HPAC, Pancreas): 2.98
AUCs (HT-3, Uterus/Cervix): 3.91
IC50 (HT-3, Uterus/Cervix): 30100 nM
AUCs (HT-55, Large intestine/Colorectum): 4
AUCs (HT-1080, Soft tissue): 3.07
AUCs (HT-1376, Bladder): 4.11
AUCs (HUH-1, Liver): 3.81
AUCs (HeLa 229, Cervix): 3.37
AUCs (Hep3B, Liver): 3.5
IC50 (Homo sapiens, 22Rv1, 22Rv1, Prostate): 1090 nM
IC50 (Homo sapiens, A204, A-204, Muscle): 184000 nM
IC50 (Homo sapiens, A673, A-673, Muscle): 701 nM
IC50 (Homo sapiens, A2780, A2780, Ovary): 863 nM
IC50 (Homo sapiens, A-375, A-375, Skin): 28100 nM
IC50 (Homo sapiens, A-431, A-431, Skin): 1110 nM
IC50 (Homo sapiens, AN3-CA, AN3 CA, Uterus): 45600 nM
IC50 (Homo sapiens, BXPC-3, BxPC-3, Pancreas): 351 nM
IC50 (Homo sapiens, C6661, C666-1, Nose): 24600 nM
IC50 (Homo sapiens, CAL-27, CAL-27, Tongue): 3420 nM
IC50 (Homo sapiens, Ca-Ski, Ca Ski, Uterus): 41300 nM
IC50 (Homo sapiens, DMS-79, DMS 79, Lung): 420000 nM
IC50 (Homo sapiens, DU-145, DU 145, Prostate): 835 nM
IC50 (Homo sapiens, FaDu, Pharynx): 341 nM
IC50 (Homo sapiens, HEC-1B, HEC-1-B, Uterus): 438 nM
IC50 (Homo sapiens, HGC-27, HGC-27, Stomach/Gastric): 513 nM
IC50 (Homo sapiens, HPAC, Pancreas): 467 nM
IC50 (Homo sapiens, HT-1080, HT-1080, Soft tissue): 990 nM
IC50 (Homo sapiens, HuTu80, Hutu 80, Small intestine/Duodenum): 880 nM
IC50 (Homo sapiens, Ishikawa, Uterus): 297 nM
IC50 (Homo sapiens, JEG-3, JEG-3, Placenta): 993 nM
IC50 (Homo sapiens, LNCaP-Clone-FGC, LNCaP clone FGC, Prostate): 172 nM
IC50 (Homo sapiens, ME-180, ME-180, Uterus): 562 nM
IC50 (Homo sapiens, MES-SA, Uterus): 480 nM
IC50 (Homo sapiens, MES-SA/Dx5, MES-SA/DX5, Uterus): 342 nM
IC50 (Homo sapiens, MIA PaCa-2, MIA PaCa-2, Pancreas): 2910 nM
IC50 (Homo sapiens, MKN-1, MKN1, Stomach/Gastric): 5360 nM
IC50 (Homo sapiens, NCI-H146, NCI-H146, Lung): 42600 nM
IC50 (Homo sapiens, NCI-H187, NCI-H187, Lung): 8360 nM
IC50 (Homo sapiens, NCI-H226, NCI-H226, Lung): 2230 nM
IC50 (Homo sapiens, NCI-H446, NCI-H446, Lung): 30500 nM
IC50 (Homo sapiens, NCI-H526, NCI-H526, Lung): 212000 nM
IC50 (Homo sapiens, NCI-H1648, NCI-H1648, Lung): 72900 nM
IC50 (Homo sapiens, NCI-H2452, NCI-H2452, Lung): 70800 nM
IC50 (Homo sapiens, NUGC-3, NUGC-3, Stomach/Gastric): 26500 nM
IC50 (Homo sapiens, NUGC-4, NUGC-4, Stomach/Gastric): 1350 nM
IC50 (Homo sapiens, OVCAR-8, OVCAR-8, Ovary): 1020 nM
IC50 (Homo sapiens, PANC-1, PANC-1, Pancreas): 2610 nM
IC50 (Homo sapiens, RL95-2, RL95-2, Uterus): 416 nM
IC50 (Homo sapiens, RPMI-2650, RPMI-2650, Nose): 843 nM
IC50 (Homo sapiens, SCC-4, SCC-4, Tongue): 833000 nM
IC50 (Homo sapiens, SCC-9, SCC-9, Tongue): 26100 nM
IC50 (Homo sapiens, SK-MEL-5, SK-MEL-5, Skin): 75100 nM
IC50 (Homo sapiens, SK-MEL-28, SK-MEL-28, Skin): 105000 nM
IC50 (Homo sapiens, SK-OV-3, SK-OV-3, Ovary): 84900 nM
IC50 (Homo sapiens, SNU1, SNU-1, Stomach/Gastric): 12600 nM
IC50 (Homo sapiens, SNU-5, SNU-5, Stomach/Gastric): 1950 nM
IC50 (Homo sapiens, SW626, SW626, Ovary): 415000 nM
IC50 (Homo sapiens, SW756, SW756, Ovary): 37900 nM
IC50 (Homo sapiens, SW982, SW982, Soft tissue): 66000 nM
IC50 (Homo sapiens, WM 266-4, WM-266-4, Skin): 32400 nM
AUCs (HuCCT1, Liver): 3.24
AUCs (Hutu 80, Small intestine/Duodenum): 2.69
AUCs (IM95m, Stomach/Gastric): 2.9
IC50 (IM95m, Stomach/Gastric): 601 nM
AUCs (Ishikawa, Uterus): 2.44
AUCs (JAR, Placenta): 2.57
IC50 (JAR, Placenta): 673 nM
AUCs (JEG-3, Placenta): 3.2
AUCs (JHH-5, Liver): 3.56
AUCs (JIMT-1, Breast): 3.62
AUCs (KATO III, Stomach/Gastric): 3.2
